The values that follow come from patent US12522602B2, “Derivatives having 2,3-dihydro-1H-indene or 2,3-dihydrobenzofuran moiety or pharmaceutically acceptable salt thereof and pharmaceutical compositions comprising the same” (YUHAN CORPORATION, priority 2019, dated 2026).

SMILES strings stand for the structures.

For the first assay, the system named is GM1 production in Jurkat cells. The assay is described as follows: cells. The class given is cell-based.
Details: not given
Regarding `CC1(C)Cc2ccc(-c3cccc(OC(F)(F)F)c3)cc2C1NC(=O)O[C@@H]1CN2CCC1CC2` (stereo partly drawn) [Example 56, (S)-quinuclidin-3-yl (2,2-dimethyl-6-(3-(trifluoromethoxy)phenyl)-2,3-dihydro-1H-inden-1-yl)carbamate], the IC50 (usually the point on the concentration scale where inhibition reaches its midpoint) came to 0.21 µM.

Still in this assay, the particulars now being: Homo sapiens, Jurkat, 72 h.
`O=C(NC1CCc2ccc(-c3ccc(Cl)c(Cl)c3)cc21)O[C@@H]1CN2CCC1CC2` (stereo partly drawn) [Example 47, (S)-quinuclidin-3-yl (6-(3,4-dichlorophenyl)-2,3-dihydro-1H-inden-1-yl)carbamate] showed an IC50 of 0.0266 µM.

For the compound `O=C(NC1CCc2ccc(-c3cc(Cl)cc(Cl)c3)cc21)O[C@@H]1CN2CCC1CC2` (stereo partly drawn) [Example 48, (S)-quinuclidin-3-yl (6-(3,5-dichlorophenyl)-2,3-dihydro-1H-inden-1-yl)carbamate], the midpoint of inhibition, the IC50, lay at 0.0657 µM. Same read-out and setting: in the case of `CC1(C)Cc2ccc(-c3ccc(F)cc3)cc2C1NC(=O)O[C@@H]1CN2CCC1CC2` (stereo partly drawn) [Example 49, (S)-quinuclidin-3-yl (6-(4-fluorophenyl)-2,2-dimethyl-2,3-dihydro-1H-inden-1-yl)carbamate] it was 0.0614 µM; in that of `CC1(C)Cc2ccc(-c3ccc(Cl)cc3)cc2C1NC(=O)O[C@@H]1CN2CCC1CC2` (stereo partly drawn) [Example 50, (S)-quinuclidin-3-yl (6-(4-chlorophenyl)-2,2-dimethyl-2,3-dihydro-1H-inden-1-yl)carbamate], 0.0523 µM. `CC1(C)Cc2ccc(-c3ccc(C(F)(F)F)cc3)cc2C1NC(=O)O[C@@H]1CN2CCC1CC2` (stereo partly drawn) [Example 51, (S)-quinuclidin-3-yl (2,2-dimethyl-6-(4-(trifluoromethyl)phenyl)-2,3-dihydro-1H-inden-1-yl)carbamate] gave a half-inhibitory concentration (IC50) of 0.0302 µM.

In turn, `CC1(C)Cc2ccc(-c3ccc(OC(F)(F)F)cc3)cc2C1NC(=O)O[C@@H]1CN2CCC1CC2` (stereo partly drawn) [Example 52, (S)-quinuclidin-3-yl (2,2-dimethyl-6-(4-(trifluoromethoxy)phenyl)-2,3-dihydro-1H-inden-1-yl)carbamate] displayed an IC50 of 0.0823 µM. The same measure, in the same setting: in the case of `CC1(C)Cc2ccc(-c3cccc(F)c3)cc2C1NC(=O)O[C@@H]1CN2CCC1CC2` (stereo partly drawn) [Example 53, (S)-quinuclidin-3-yl (6-(3-fluorophenyl)-2,2-dimethyl-2,3-dihydro-1H-inden-1-yl)carbamate] it was 0.08 µM; in that of `CC1(C)Cc2ccc(-c3cccc(Cl)c3)cc2C1NC(=O)O[C@@H]1CN2CCC1CC2` (stereo partly drawn) [Example 54, (S)-quinuclidin-3-yl (6-(3-chlorophenyl)-2,2-dimethyl-2,3-dihydro-1H-inden-1-yl)carbamate], 0.161 µM; in that of `CC1(C)Cc2ccc(-c3cccc(C(F)(F)F)c3)cc2C1NC(=O)O[C@@H]1CN2CCC1CC2` (stereo partly drawn) [Example 55, (S)-quinuclidin-3-yl (2,2-dimethyl-6-(3-(trifluoromethyl)phenyl)-2,3-dihydro-1H-inden-1-yl)carbamate], 0.173 µM. The same measure, in the same setting: in the case of `CC1(C)Cc2ccc(-c3ccccc3F)cc2C1NC(=O)O[C@@H]1CN2CCC1CC2` (stereo partly drawn) [Example 57, (S)-quinuclidin-3-yl (6-(2-fluorophenyl)-2,2-dimethyl-2,3-dihydro-1H-inden-1-yl)carbamate] it was 0.0499 µM; in that of `CC1(C)Cc2ccc(-c3ccccc3Cl)cc2C1NC(=O)O[C@@H]1CN2CCC1CC2` (stereo partly drawn) [Example 58, (S)-quinuclidin-3-yl (6-(2-chlorophenyl)-2,2-dimethyl-2,3-dihydro-1H-inden-1-yl)carbamate], 0.0878 µM; in that of `CC1(C)Cc2ccc(-c3ccccc3C(F)(F)F)cc2C1NC(=O)O[C@@H]1CN2CCC1CC2` (stereo partly drawn) [Example 59, (S)-quinuclidin-3-yl (2,2-dimethyl-6-(2-(trifluoromethyl)phenyl)-2,3-dihydro-1H-inden-1-yl)carbamate], 0.165 µM. Same read-out and setting: the value for `Cc1ccc(-c2ccc3c(c2)C(NC(=O)O[C@@H]2CN4CCC2CC4)C(C)(C)C3)cc1` (stereo partly drawn) [Example 60, (S)-quinuclidin-3-yl (2,2-dimethyl-6-(p-tolyl)-2,3-dihydro-1H-inden-1-yl)carbamate] was 0.112 µM. In turn, `CC1(C)Cc2ccc(-c3ccc(OC(F)F)cc3)cc2C1NC(=O)O[C@@H]1CN2CCC1CC2` (stereo partly drawn) [Example 61, (S)-quinuclidin-3-yl (6-(4-(difluoromethoxy)phenyl)-2,2-dimethyl-2,3-dihydro-1H-inden-1-yl)carbamate] gave an IC50 of 0.0396 µM. Still for that read-out and setting: the value for `CC1(C)Cc2ccc(-c3ccc(F)c(F)c3)cc2C1NC(=O)O[C@@H]1CN2CCC1CC2` (stereo partly drawn) [Example 62, (S)-quinuclidin-3-yl (6-(3,4-difluorophenyl)-2,2-dimethyl-2,3-dihydro-1H-inden-1-yl)carbamate] was 0.103 µM; that for `CC1(C)Cc2ccc(-c3ccc(F)cc3F)cc2C1NC(=O)O[C@@H]1CN2CCC1CC2` (stereo partly drawn) [Example 63, (S)-quinuclidin-3-yl (6-(2,4-difluorophenyl)-2,2-dimethyl-2,3-dihydro-1H-inden-1-yl)carbamate] was 0.117 µM. The same measure, in the same setting: the value for `CC1(C)Cc2ccc(-c3cccc(F)c3F)cc2C1NC(=O)O[C@@H]1CN2CCC1CC2` (stereo partly drawn) [Example 64, (S)-quinuclidin-3-yl (6-(2,3-difluorophenyl)-2,2-dimethyl-2,3-dihydro-1H-inden-1-yl)carbamate] was 0.0747 µM; that for `CC1(C)Cc2ccc(-c3cc(F)ccc3F)cc2C1NC(=O)O[C@@H]1CN2CCC1CC2` (stereo partly drawn) [Example 65, (S)-quinuclidin-3-yl (6-(2,5-difluorophenyl)-2,2-dimethyl-2,3-dihydro-1H-inden-1-yl)carbamate] was 0.0562 µM; that for `CC1(C)Cc2ccc(-c3cc(F)cc(F)c3)cc2C1NC(=O)O[C@@H]1CN2CCC1CC2` (stereo partly drawn) [Example 66, (S)-quinuclidin-3-yl (6-(3,5-difluorophenyl)-2,2-dimethyl-2,3-dihydro-1H-inden-1-yl)carbamate] was 0.128 µM. Still for that read-out and setting: in the case of `CC1(C)Cc2ccc(-c3ccc(F)c(F)c3F)cc2C1NC(=O)O[C@@H]1CN2CCC1CC2` (stereo partly drawn) [Example 67, (S)-quinuclidin-3-yl (2,2-dimethyl-6-(2,3,4-trifluorophenyl)-2,3-dihydro-1H-inden-1-yl)carbamate] it was 0.144 µM. `CC1(C)Cc2ccc(-c3cc(Cl)cc(Cl)c3)cc2C1NC(=O)O[C@@H]1CN2CCC1CC2` (stereo partly drawn) [Example 69, (S)-quinuclidin-3-yl (6-(3,5-dichlorophenyl)-2,2-dimethyl-2,3-dihydro-1H-inden-1-yl)carbamate]: it took 0.4 µM to reach half-maximal inhibition (IC50). Same read-out and setting: the value for `CC1(C)Cc2ccc(-c3ccc(Cl)c(Cl)c3)cc2C1NC(=O)O[C@@H]1CN2CCC1CC2` (stereo partly drawn) [Example 70, (S)-quinuclidin-3-yl (6-(3,4-dichlorophenyl)-2,2-dimethyl-2,3-dihydro-1H-inden-1-yl)carbamate] was 0.0709 µM; that for `CC1(C)Cc2ccc(-c3cc(Cl)ccc3Cl)cc2C1NC(=O)O[C@@H]1CN2CCC1CC2` (stereo partly drawn) [Example 71, (S)-quinuclidin-3-yl (6-(2,5-dichlorophenyl)-2,2-dimethyl-2,3-dihydro-1H-inden-1-yl)carbamate] was 0.0643 µM; that for `COCCOc1ccc(-c2ccc3c(c2)C(NC(=O)O[C@@H]2CN4CCC2CC4)C(C)(C)C3)cc1` (stereo partly drawn) [Example 72, (S)-quinuclidin-3-yl (6-(4-(2-methoxyethoxy)phenyl)-2,2-dimethyl-2,3-dihydro-1H-inden-1-yl)carbamate] was 0.0582 µM.
